# Results published in paper PMC10139140, “Synthesis of Novel 2-(Cyclopentylamino)thiazol-4(5H)-one Derivatives with Potential Anticancer, Antioxidant, and 11β-HSD Inhibitory Activities” (International Journal of Molecular Sciences, 2023).
# Key:
# [1] = molecular target: T1, 11β-HSD2 (Homo sapiens, UniProt P80365); experiment: Inhibition of 11β-HSD2 (cortisol to cortisone, human microsomes, cortisol ELISA); type: biochemical; settings: 2.5 h, 37 °C
# T1 construct: Human liver microsomes were used as a source of 11β-HSD2 enzyme; tissue XenoTech Lot No. 1710160; host or cells: human kidney microsomes, mixed gender (method text says human liver microsomes)
# T1 sequence (P80365 1-405): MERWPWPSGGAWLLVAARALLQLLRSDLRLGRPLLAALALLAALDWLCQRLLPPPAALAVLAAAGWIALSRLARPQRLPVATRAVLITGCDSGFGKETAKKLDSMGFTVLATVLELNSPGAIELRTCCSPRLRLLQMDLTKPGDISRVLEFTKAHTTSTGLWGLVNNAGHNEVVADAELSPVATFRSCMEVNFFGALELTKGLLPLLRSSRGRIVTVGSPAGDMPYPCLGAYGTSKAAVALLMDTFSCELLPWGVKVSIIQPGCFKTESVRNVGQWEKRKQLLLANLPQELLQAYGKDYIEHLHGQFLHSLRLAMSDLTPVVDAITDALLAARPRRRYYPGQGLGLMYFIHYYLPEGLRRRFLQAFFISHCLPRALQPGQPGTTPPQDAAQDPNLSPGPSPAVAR
# Procedure: The resulting solution with a final volume of 100 µL was incubated for 2.5 h at 37 °C. […] The level of unreacted cortisol was measured by a commercially available ELISA kit.
# [2] = test system: human pancreatic carcinoma (PANC-1); experiment: MTS metabolic activity assay, PANC-1 cells; type: cell-based; settings: for viability at 10 µM / viability at 20 µM / viability at 50 µM / viability at 100 µM / viability at 200 µM / viability at 300 µM / viability at 500 µM: Homo sapiens, 72 h, read-out: Cell metabolic activity (MTS), % of untreated control; for viability at 10 µM: PANC-1, 10 µM; for viability at 20 µM: PANC-1, 20 µM; for viability at 50 µM: PANC-1, 50 µM; for viability at 100 µM: PANC-1, 100 µM; for viability at 200 µM: PANC-1, 200 µM; for viability at 300 µM: PANC-1, 300 µM; for viability at 500 µM: PANC-1, 500 µM
# Procedure: (§1) The BJ (CRL-2522), Caco-2 (HTB-37), PANC-1 (CRL-1469), U-118 MG (HTB-15), SK-MEL-30 (ACC 151), and MDA-MB-231 (HTB-26) cell lines were purchased from ATCC (Manassas, VA, USA) or DSMZ (Braunschweig, GERMANY). Cells were cultured in accordance with manufacturers' recommendations in a DMEM, MEM, or RPMI-1640 (Sigma, Saint Louis, MO, USA; Gibco, Waltham, MA, USA), supplemented with 10% FBS, except for Caco-2 (20%) (Thermo Fisher Scientific, Waltham, MA, USA) and 1% antibiotic mix solution (penicillin, streptomycin; Thermo Fisher Scientific, Waltham, MA, USA) in a humidified atmosphere with 5% CO2 at 37 °C. All cell lines were cultured in T75 cell culture flasks or cell culture dishes to reach 80–90% confluency and seeded at a standard density of 5 × 10^3 cells/0.32 cm^2, except for BJ cells at 2 × 10^3 cells/0.32 cm^2.
# (§2) The MTS ((MTS: 3-(4,5-dimethylthiazol-2-yl)-5-(3-carboxymethoxyphenyl)-2-(4-sulfophenyl)-2H-tetrazolium)) assay was performed following previously reported method. Briefly, cells were seeded at a standard density into 96-well flat-bottom plates and incubated for 24 h, followed by the treatment. The various concentrations of compounds were prepared and treated for the next 72 h. MTS solution was added for 3h and incubated at standard conditions, protected from light. Finally, the absorbance was read at […] and 620 nm wavelengths using a Synergy H1 microplate reader (BioTek, Santa Clara, CA, USA). The results are presented as %, while untreated control cells were considered 100%.
# [3] = test system: glioma (U-118 MG); experiment: MTS metabolic activity assay, U-118 MG cells; type: cell-based; settings: Homo sapiens, U-118-MG, U118-MG, 72 h, read-out: Cell metabolic activity (MTS), % of untreated control
# Procedure: as §1, §2
# [4] = test system: skin melanoma (SK-MEL-30); experiment: MTS metabolic activity assay, SK-MEL-30 cells; type: cell-based; settings: 72 h; for viability at 10 µM / viability at 20 µM / viability at 50 µM / viability at 100 µM / viability at 200 µM / viability at 300 µM / viability at 500 µM: Homo sapiens, read-out: Cell metabolic activity (MTS), % of untreated control; for viability at 10 µM: SK-MEL-30, 10 µM; for viability at 20 µM: SK-MEL-30, 20 µM; for viability at 50 µM: SK-MEL-30, 50 µM; for viability at 100 µM: SK-MEL-30, 100 µM; for viability at 200 µM: SK-MEL-30, 200 µM; for viability at 300 µM: SK-MEL-30, 300 µM; for viability at 500 µM: SK-MEL-30, 500 µM
# Procedure: as §1, §2
# [5] = molecular target: T2, 11β-HSD1 (Homo sapiens, UniProt P28845); experiment: Inhibition of 11β-HSD1 (cortisone to cortisol, human liver microsomes, cortisol ELISA); type: biochemical; settings: for inhibition at 10 µM: 2.5 h, 37 °C
# T2 construct: Human liver microsomes were used as a source of 11β-HSD1 enzyme; tissue XenoTech Lot No. 1410013; host or cells: pooled human liver microsomes, mixed gender
# T2 sequence (P28845 whole entry): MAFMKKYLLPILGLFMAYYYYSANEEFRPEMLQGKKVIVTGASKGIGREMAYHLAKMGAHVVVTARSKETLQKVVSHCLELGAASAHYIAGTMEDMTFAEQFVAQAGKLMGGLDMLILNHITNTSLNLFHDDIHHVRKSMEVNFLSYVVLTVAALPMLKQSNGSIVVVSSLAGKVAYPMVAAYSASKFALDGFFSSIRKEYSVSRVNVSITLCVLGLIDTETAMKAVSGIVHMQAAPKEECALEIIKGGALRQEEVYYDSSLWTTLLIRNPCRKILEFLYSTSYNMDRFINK
# Procedure: The resulting solution with a final volume of 100 µL was incubated for 2.5 h at 37 °C. To stop the reaction, 10 µL of a 100 µM solution of 18β-glycyrrhetinic acid in PBS was added. The level of cortisol obtained in the reaction was measured by commercially available ELISA kit.
# As a control, analogous tests without the addition of inhibitors were used. Half the inhibitory concentration (causing 50% reduction of cortisol or cortisone) was read from the chart.
# [6] = test system: BJ cells; experiment: MTS metabolic activity assay, BJ cells; type: cell-based; settings: Homo sapiens, 72 h, read-out: Cell metabolic activity (MTS), % of untreated control
# Procedure: as §1, §2
# [7] = test system: human breast carcinoma (MDA-MB-231); experiment: MTS metabolic activity assay, MDA-MB-231 cells; type: cell-based; settings: 72 h; for viability at 10 µM / viability at 20 µM / viability at 50 µM / viability at 100 µM / viability at 200 µM / viability at 300 µM / viability at 500 µM: Homo sapiens, read-out: Cell metabolic activity (MTS), % of untreated control; for viability at 10 µM: MDA-MB-231, 10 µM; for viability at 20 µM: MDA-MB-231, 20 µM; for viability at 50 µM: MDA-MB-231, 50 µM; for viability at 100 µM: MDA-MB-231, 100 µM; for viability at 200 µM: MDA-MB-231, 200 µM; for viability at 300 µM: MDA-MB-231, 300 µM; for viability at 500 µM: MDA-MB-231, 500 µM
# Procedure: as §1, §2
# [8] = test system: human colon carcinoma (Caco-2); experiment: MTS metabolic activity assay, Caco-2 cells; type: cell-based; settings: 72 h; for viability at 10 µM / viability at 20 µM / viability at 50 µM / viability at 100 µM / viability at 200 µM / viability at 300 µM / viability at 500 µM: Homo sapiens, read-out: Cell metabolic activity (MTS), % of untreated control; for viability at 10 µM: Caco-2, 10 µM; for viability at 20 µM: Caco-2, 20 µM; for viability at 50 µM: Caco-2, 50 µM; for viability at 100 µM: Caco-2, 100 µM; for viability at 200 µM: Caco-2, 200 µM; for viability at 300 µM: Caco-2, 300 µM; for viability at 500 µM: Caco-2, 500 µM
# Procedure: as §1, §2
compound,measurement,setting,value
"CC1SC(NC2CCCC2)=NC1=O (stereo not shown) [Compound 3a, 2-(cyclopentylamino)-5-methylthiazol-4(5H)-one]",inhibition at 10 µM,[1],40.3 ± 0.65%
same,viability at 10 µM,[2],99.7%
same,viability at 20 µM,[2],104%
same,viability at 50 µM,[2],106%
same,viability at 100 µM,[2],107%
same,viability at 200 µM,[2],110%
same,viability at 300 µM,[2],106%
same,viability at 500 µM,[2],104%
same,viability at 10 µM,[3],111%
same,viability at 20 µM,[3],109%
same,viability at 50 µM,[3],113%
same,viability at 100 µM,[3],110%
same,viability at 200 µM,[3],110%
same,viability at 300 µM,[3],110%
same,viability at 500 µM,[3],105%
same,viability at 10 µM,[4],104%
same,viability at 20 µM,[4],102%
same,viability at 50 µM,[4],102%
same,viability at 100 µM,[4],106%
same,viability at 200 µM,[4],103%
same,viability at 300 µM,[4],101%
same,viability at 500 µM,[4],97.6%
same,IC50,[5],> 10000 nM
same,inhibition at 10 µM,[5],10.9 ± 4.08%
same,viability at 10 µM,[6],95.9%
same,viability at 20 µM,[6],98.4%
same,viability at 50 µM,[6],102%
same,viability at 100 µM,[6],112%
same,viability at 200 µM,[6],109%
same,viability at 300 µM,[6],109%
same,viability at 500 µM,[6],110%
same,viability at 10 µM,[7],105%
same,viability at 20 µM,[7],107%
same,viability at 50 µM,[7],103%
same,viability at 100 µM,[7],105%
same,viability at 200 µM,[7],104%
same,viability at 300 µM,[7],93.6%
same,viability at 500 µM,[7],89.8%
same,viability at 10 µM,[8],86.2%
same,viability at 20 µM,[8],92.8%
same,viability at 50 µM,[8],82.6%
same,viability at 100 µM,[8],81.6%
same,viability at 200 µM,[8],76.9%
same,viability at 300 µM,[8],75.5%
same,viability at 500 µM,[8],66.8%
"O=C1N=C(NC2CCCC2)SC1c1ccc(Br)cc1 (stereo not shown) [Compound 3g, 2-(cyclopentylamino)-5-(4-bromophenyl)thiazol-4(5H)-one]",inhibition at 10 µM,[1],38.6 ± 1.39%
same,viability at 10 µM,[2],116%
same,viability at 20 µM,[2],122%
same,viability at 50 µM,[2],145%
same,viability at 100 µM,[2],139%
same,viability at 200 µM,[2],94.1%
same,viability at 300 µM,[2],57.9%
same,viability at 500 µM,[2],57.2%
same,highest increase in proliferation (cell metabolic activity),"[2]; PANC-1, 72 h, range given for the named substances together",115 to 144%
same,viability at 10 µM,[3],114%
same,viability at 20 µM,[3],110%
same,viability at 50 µM,[3],105%
same,viability at 100 µM,[3],104%
same,viability at 200 µM,[3],87.3%
same,viability at 300 µM,[3],40.6%
same,viability at 500 µM,[3],32.3%
same,viability at 10 µM,[4],95.4%
same,viability at 20 µM,[4],97.5%
same,viability at 50 µM,[4],98.3%
same,viability at 100 µM,[4],93.1%
same,viability at 200 µM,[4],71.5%
same,viability at 300 µM,[4],29.7%
same,viability at 500 µM,[4],25.2%
same,"cell viability, decreases to","[4]; SK-MEL-30, higher concentrations, range given for the most effective substances together",20–65%
same,IC50,[5],180 ± 30 nM
same,inhibition at 10 µM,[5],87 ± 2.17%
same,viability at 10 µM,[6],99.7%
same,viability at 20 µM,[6],97.8%
same,viability at 50 µM,[6],90.8%
same,viability at 100 µM,[6],88.1%
same,viability at 200 µM,[6],84.2%
same,viability at 300 µM,[6],57.3%
same,viability at 500 µM,[6],55.4%
same,viability at 10 µM,[7],92.9%
same,viability at 20 µM,[7],93.6%
same,viability at 50 µM,[7],84.6%
same,viability at 100 µM,[7],82%
same,viability at 200 µM,[7],61.4%
same,viability at 300 µM,[7],43.9%
same,viability at 500 µM,[7],38%
same,"cell viability, decreases to","[7]; MDA-MB-231, higher concentrations, range given for the most effective substances together",20–65%
same,"cell viability, decreases to","[8]; Caco-2, higher concentrations, range given for the most effective substances together",20–65%
same,viability at 10 µM,[8],91.9%
same,viability at 20 µM,[8],88.8%
same,viability at 50 µM,[8],87.3%
same,viability at 100 µM,[8],80.7%
same,viability at 200 µM,[8],56.3%
same,viability at 300 µM,[8],30.1%
same,viability at 500 µM,[8],30.9%
